Source: US11390613B2, “Azole analogues and methods of use thereof” (UNIVERSITY OF CONNECTICUT, priority 2017, dated 2022)
≈ marks a conversion by molar mass, not a printed value. Read-outs that look alike come from different tables or passages of the source.

What was measured:
BCRP = target: T1, BCRP (Homo sapiens, UniProt Q9UNQ0); experiment: BCRP efflux; assay type: in vitro ADME; details: Table 9
T1 sequence (Q9UNQ0 1-655): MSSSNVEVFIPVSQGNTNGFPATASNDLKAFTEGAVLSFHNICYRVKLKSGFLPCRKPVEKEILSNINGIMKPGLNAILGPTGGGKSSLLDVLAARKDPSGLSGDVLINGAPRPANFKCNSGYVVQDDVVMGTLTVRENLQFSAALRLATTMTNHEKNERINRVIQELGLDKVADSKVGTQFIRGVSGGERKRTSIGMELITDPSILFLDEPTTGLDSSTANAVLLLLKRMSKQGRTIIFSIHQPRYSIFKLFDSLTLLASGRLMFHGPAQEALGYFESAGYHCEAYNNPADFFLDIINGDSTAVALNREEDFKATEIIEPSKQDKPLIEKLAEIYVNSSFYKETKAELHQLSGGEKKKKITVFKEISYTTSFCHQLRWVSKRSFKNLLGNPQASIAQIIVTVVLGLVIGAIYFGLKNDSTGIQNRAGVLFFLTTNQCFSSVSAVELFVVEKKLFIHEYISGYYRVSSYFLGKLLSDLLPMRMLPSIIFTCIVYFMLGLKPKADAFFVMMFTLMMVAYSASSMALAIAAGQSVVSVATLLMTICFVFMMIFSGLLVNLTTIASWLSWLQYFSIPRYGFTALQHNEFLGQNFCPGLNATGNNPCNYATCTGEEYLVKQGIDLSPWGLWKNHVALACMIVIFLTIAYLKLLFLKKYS
Description: (§1) Preliminary In Vitro Pharmacokinetic Assays.

[1] = tested on: primary murine Hh-dependent MB cell line (MERP); experiment: Antiproliferation in primary Hh-dependent MB cells (MERP); assay type: cell-based; details: Mus musculus, Table 6
Experimental: Secondary In Vitro Evaluation. Based on their activity in ASZ cells, several compounds were evaluated further in a primary murine Hh-dependent MB cell line (MERP).
(§2) General Information for Cell Culture Studies Protocols for general cell culture, qPCR, and Hh inhibition ASZ cells are as previously described.
(§3) General Information for Cell Culture Studies. Protocols for general cell culture, qPCR, and Hh inhibition ASZ cells are as previously described.

P-glycoprotein (P-gp) = P-glycoprotein (P-gp) (Homo sapiens, UniProt P08183); experiment: P-glycoprotein (P-gp) efflux; assay type: in vitro ADME; details: for P-gp: Table 9
Description: as §1

[2] = Metabolic half-life and clearance (HLM); assay type: in vitro ADME
[3] = Parallel artificial membrane permeability assay (PAMPA); assay type: in vitro ADME; details: passive permeability
Description: as §1

[4] = tested on: Gli1 mRNA levels in the murine BCC cell line ASZ-001 (Hh pathway); experiment: Hh pathway inhibition: endogenous Gli1 mRNA (qRT-PCR) in ASZ-001 cells; assay type: cell-based; details: Mus musculus
Experimental: Initial Hh inhibition studies.
as §2, §3
Gene Expression Assay Protocol (ASZ-001): Cells are seeded (10,000 cells per well; 100 μL total volume per well) in a 96-well tissue culture plate. After 24 h of incubation (37° C., 5% CO2), growth media was removed and replaced with low FBS media. Cells were incubated for an additional 24 h. After this time, DMSO (vehicle control) and liposomes (Aqueous Solution) were added to the wells. […]
Rt-PCR Protocol: Following treatment and incubation periods, both RNA extraction and cDNA synthesis were performed using a TaqMan Cells-to-CT (fast) kit. cDNA synthesis utilized a BioRad MyCycler and was programmed according to the manufacturer's instructions. Quantitative RT-PCR was performed on an ABI 7500 system and made use of the following TaqMan Gene Expression Probes: mouse ActB (Mm00607939_s1) and mouse Gli1 (Mm00494654_m1). Relative gene expression levels were computed via ΔΔCT method using GraphPad Prism. Corresponding IC50 values were calculated as mean±SEM for at least three separate experiments performed in triplicate.

Hh pathway = details: background; read-out: IC50 (Hh pathway inhibitor); cited from earlier work
[5] = tested on: Gli1 mRNA levels in the murine BCC cell line ASZ-001 (Hh pathway); details: background, read-out: IC50 (Hh signaling); cited from earlier work

Chain of P-glycoprotein (P-gp) (P08183 whole entry): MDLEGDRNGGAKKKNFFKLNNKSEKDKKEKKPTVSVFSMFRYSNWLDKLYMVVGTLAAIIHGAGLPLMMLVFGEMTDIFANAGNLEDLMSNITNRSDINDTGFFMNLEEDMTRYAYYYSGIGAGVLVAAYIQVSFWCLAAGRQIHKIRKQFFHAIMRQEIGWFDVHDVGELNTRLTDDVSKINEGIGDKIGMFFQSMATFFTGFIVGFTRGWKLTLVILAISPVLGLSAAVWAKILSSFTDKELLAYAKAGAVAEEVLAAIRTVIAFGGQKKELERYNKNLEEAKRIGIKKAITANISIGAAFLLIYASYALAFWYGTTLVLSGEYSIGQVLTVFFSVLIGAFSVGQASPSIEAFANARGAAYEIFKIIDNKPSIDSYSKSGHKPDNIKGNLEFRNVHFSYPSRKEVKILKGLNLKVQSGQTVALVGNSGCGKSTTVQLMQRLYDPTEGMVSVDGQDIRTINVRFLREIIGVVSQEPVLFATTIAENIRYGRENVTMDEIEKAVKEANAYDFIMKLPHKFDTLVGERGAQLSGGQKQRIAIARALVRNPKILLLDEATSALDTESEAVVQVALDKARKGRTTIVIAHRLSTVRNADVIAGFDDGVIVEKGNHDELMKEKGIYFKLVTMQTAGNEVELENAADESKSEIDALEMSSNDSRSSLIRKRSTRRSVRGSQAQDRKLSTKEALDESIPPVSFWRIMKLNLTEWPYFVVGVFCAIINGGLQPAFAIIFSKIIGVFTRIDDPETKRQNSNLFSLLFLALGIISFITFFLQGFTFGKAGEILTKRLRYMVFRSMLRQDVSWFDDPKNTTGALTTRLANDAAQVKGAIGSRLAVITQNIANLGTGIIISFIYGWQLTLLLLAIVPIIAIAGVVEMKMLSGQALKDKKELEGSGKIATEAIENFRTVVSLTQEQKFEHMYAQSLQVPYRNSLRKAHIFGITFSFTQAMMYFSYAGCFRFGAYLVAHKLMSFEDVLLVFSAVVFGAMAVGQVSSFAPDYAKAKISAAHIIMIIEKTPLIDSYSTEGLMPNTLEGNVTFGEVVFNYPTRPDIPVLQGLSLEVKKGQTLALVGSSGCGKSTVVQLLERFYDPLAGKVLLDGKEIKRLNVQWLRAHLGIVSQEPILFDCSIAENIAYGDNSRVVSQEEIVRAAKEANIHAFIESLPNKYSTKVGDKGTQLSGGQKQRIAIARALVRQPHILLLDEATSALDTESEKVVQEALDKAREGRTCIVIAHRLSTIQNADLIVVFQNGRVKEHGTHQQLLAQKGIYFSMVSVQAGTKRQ

SMILES	BCRP (BCRP)	IC50 [1]	Solubility (Solubility)	P-gp (P-glycoprotein (P-gp))	T1/2 (HLM, min) [2]	PAMPA [3]	IC50 ([4]; ASZ001, 48 h, read-out: IC50 (μM) 48 h)	IC50 ([4]; ASZ001, 96 h, read-out: IC50 (μM) 96 h)	IC50 (Hh pathway)	P-gp (Efflux) (P-glycoprotein (P-gp); Table P1)	IC50 ([4]; ASZ001, 48 h)	IC50 [5]
C[C@]1(c2ccc(Cl)cc2Cl)OC[C@@H](COc2ccc(N3CCN(c4ccc(NC(=O)c5cccnc5)cc4)CC3)cc2)O1 [Compound 18, N-(4-(4-(4-(((2S,4R)-2-(2,4-dichlorophenyl)-2-methyl-1,3-dioxolan-4-yl)methoxy)phenyl)piperazin-1-yl)phenyl)nicotinamide]	No	1100 ± 600 nM	0.0069 µM (≈ 0.00427 µg/mL)	No	significantly different half-lives	Poor						
CCC(C)n1ncn(-c2ccc(N3CCN(c4ccc(OCC5COC(Cn6cncn6)(c6ccc(Cl)cc6Cl)O5)cc4)CC3)cc2)c1=O (centres unmarked) [ITZ, Itraconazole, reference compound]	No		0.8 µM (≈ 0.565 µg/mL)	No	27.0 ± 6.2 min	Moderate	0.11 ± 0.025 µM	0.14 ± 0.012 µM	690 nM			
CC[C@@H]([C@H](C)O)n1ncn(-c2ccc(N3CCN(c4ccc(OC[C@@H]5CO[C@@](Cn6cncn6)(c6ccc(F)cc6F)C5)cc4)CC3)cc2)c1=O [PSZ, Posaconazole]										substrate for P-gp	0.5 ± 0.1 µM	540 nM
